Laboratory results published in PubChem BioAssay AID2060621 (Molecular Pharmacology Branch, DTP, NCI, 2025).
One block for each compound: values may come before it.

Tested on: 324938-238-R-J1-PDC complex spheroids viability
Experiment: Anticancer human tumor 324938-238-R-J1-PDC patient-derived bladder carcinoma cell line growth inhibition [CLK]
Details: for IC50: curve of first compound; for viability, T/C: stronger effect = lower value
Summary of the method: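 Multi-cell-type spheroids combined patient-derived tumor cells with HUVEC endothelial cells and human mesenchymal stem cells. Paired agents were dosed in half-log steps down from about clinical Cmax, or from 10 microM where Cmax was unknown.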

[1] = second compound 0.0316 µM, first compound 0.0316 µM
[2] = second compound 0.0316 µM, first compound 0.1 µM
[3] = second compound 0.0316 µM, first compound 0.316 µM
[4] = second compound 0.0316 µM, first compound 1 µM
[5] = second compound 0.0316 µM, first compound 3.16 µM
[6] = second compound 0.0316 µM, first compound 10 µM
[7] = second compound 0.1 µM, first compound 0.0316 µM
[8] = second compound 0.1 µM, first compound 0.1 µM
[9] = second compound 0.1 µM, first compound 0.316 µM
[10] = second compound 0.1 µM, first compound 1 µM
[11] = second compound 0.1 µM, first compound 3.16 µM
[12] = second compound 0.1 µM, first compound 10 µM
[13] = second compound 0.316 µM, first compound 0.0316 µM
[14] = second compound 0.316 µM, first compound 0.1 µM
[15] = second compound 0.316 µM, first compound 0.316 µM
[16] = second compound 0.316 µM, first compound 1 µM
[17] = second compound 0.316 µM, first compound 3.16 µM
[18] = second compound 0.316 µM, first compound 10 µM
[19] = second compound 1 µM, first compound 0.0316 µM
[20] = second compound 1 µM, first compound 0.1 µM
[21] = second compound 1 µM, first compound 0.316 µM
[22] = second compound 1 µM, first compound 1 µM
[23] = second compound 1 µM, first compound 3.16 µM
[24] = second compound 1 µM, first compound 10 µM
[25] = second compound 3.16 µM, first compound 0.0316 µM
[26] = second compound 3.16 µM, first compound 0.1 µM
[27] = second compound 3.16 µM, first compound 0.316 µM
[28] = second compound 3.16 µM, first compound 1 µM
[29] = second compound 3.16 µM, first compound 3.16 µM
[30] = second compound 3.16 µM, first compound 10 µM
[31] = second compound 10 µM, first compound 0.0316 µM
[32] = second compound 10 µM, first compound 0.1 µM
[33] = second compound 10 µM, first compound 0.316 µM
[34] = second compound 10 µM, first compound 1 µM
[35] = second compound 10 µM, first compound 3.16 µM
[36] = second compound 10 µM, first compound 10 µM
[37] = second compound 0.0316 µM, first compound 0.00316 µM
[38] = second compound 0.0316 µM, first compound 0.01 µM
[39] = second compound 0.1 µM, first compound 0.00316 µM
[40] = second compound 0.1 µM, first compound 0.01 µM
[41] = second compound 0.316 µM, first compound 0.00316 µM
[42] = second compound 0.316 µM, first compound 0.01 µM
[43] = second compound 1 µM, first compound 0.00316 µM
[44] = second compound 1 µM, first compound 0.01 µM
[45] = second compound 3.16 µM, first compound 0.00316 µM
[46] = second compound 3.16 µM, first compound 0.01 µM
[47] = second compound 10 µM, first compound 0.00316 µM
[48] = second compound 10 µM, first compound 0.01 µM
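Note: viability read after seven days of drug exposure.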
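Throughout, for viability, T/C: 100% = DMSO vehicle control wells.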

SMILES: CC(CO)NC(=O)c1cc(-c2ccc(Cl)cc2)nn(-c2cnn(C)c2)c1=O (stereo not given) + CNC(=O)c1ccc(Nc2nc(OC3CCCC3)c3c(-c4ccc5nc(C)oc5c4)c[nH]c3n2)c(OC)c1
IC50 (second compound 0.0316 µM): > 10000 nM
IC50 (second compound 0.1 µM): < 31.6 nM
IC50 (second compound 0.316 µM): < 31.6 nM
IC50 (second compound 1 µM): < 31.6 nM
IC50 (second compound 3.16 µM): < 31.6 nM
IC50 (second compound 10 µM): < 31.6 nM
viability, T/C [1]: 82.2%
viability, T/C [2]: 90.3%
viability, T/C [3]: 89.1%
viability, T/C [4]: 81.1%
viability, T/C [5]: 66.1%
viability, T/C [6]: 50.6%
viability, T/C [7]: 28.9%
viability, T/C [8]: 33.2%
viability, T/C [9]: 34.6%
viability, T/C [10]: 35%
viability, T/C [11]: 29.4%
viability, T/C [12]: 28%
viability, T/C [13]: 19%
viability, T/C [14]: 19.3%
viability, T/C [15]: 21.6%
viability, T/C [16]: 18.7%
viability, T/C [17]: 19.1%
viability, T/C [18]: 21.1%
viability, T/C [19]: 16.4%
viability, T/C [20]: 16%
viability, T/C [21]: 15.9%
viability, T/C [22]: 16.9%
viability, T/C [23]: 18.4%
viability, T/C [24]: 18.6%
viability, T/C [25]: 15.9%
viability, T/C [26]: 15.5%
viability, T/C [27]: 15.1%
viability, T/C [28]: 16.2%
viability, T/C [29]: 18.1%
viability, T/C [30]: 17.6%
viability, T/C [31]: 17.3%
viability, T/C [32]: 16.3%
viability, T/C [33]: 15.2%
viability, T/C [34]: 16.5%
viability, T/C [35]: 17%
viability, T/C [36]: 15.6%

SMILES: CC(Nc1ccc2c(c1)OCCn1cc(N3C(=O)OCC3C(F)F)nc1-2)C(N)=O (stereo not given) + CNC(=O)c1ccc(Nc2nc(OC3CCCC3)c3c(-c4ccc5nc(C)oc5c4)c[nH]c3n2)c(OC)c1
IC50 (second compound 0.0316 µM): 169 nM
IC50 (second compound 0.1 µM): < 31.6 nM
IC50 (second compound 0.316 µM): < 31.6 nM
IC50 (second compound 1 µM): < 31.6 nM
IC50 (second compound 3.16 µM): < 31.6 nM
IC50 (second compound 10 µM): < 31.6 nM
viability, T/C [1]: 78.8%
viability, T/C [2]: 52.5%
viability, T/C [3]: 42.1%
viability, T/C [4]: 35.5%
viability, T/C [5]: 22.2%
viability, T/C [6]: 15.3%
viability, T/C [7]: 32.2%
viability, T/C [8]: 28.1%
viability, T/C [9]: 25%
viability, T/C [10]: 21.1%
viability, T/C [11]: 20.2%
viability, T/C [12]: 13.6%
viability, T/C [13]: 14%
viability, T/C [14]: 10.9%
viability, T/C [15]: 9.84%
viability, T/C [16]: 9.27%
viability, T/C [17]: 6.34%
viability, T/C [18]: 5.89%
viability, T/C [19]: 13.4%
viability, T/C [20]: 12.3%
viability, T/C [21]: 8.46%
viability, T/C [22]: 6.86%
viability, T/C [23]: 5.9%
viability, T/C [24]: 4.88%
viability, T/C [25]: 13.1%
viability, T/C [26]: 9.57%
viability, T/C [27]: 9.31%
viability, T/C [28]: 7.44%
viability, T/C [29]: 7.17%
viability, T/C [30]: 4.87%
viability, T/C [31]: 14.4%
viability, T/C [32]: 9.66%
viability, T/C [33]: 9.38%
viability, T/C [34]: 7.73%
viability, T/C [35]: 7.48%
viability, T/C [36]: 4.64%

SMILES: COc1c(OCCCN2CCOCC2)ccc2c3n(c(=NC(=O)c4cnc(N)nc4)nc12)CCN3 + CNC(=O)c1ccc(Nc2nc(OC3CCCC3)c3c(-c4ccc5nc(C)oc5c4)c[nH]c3n2)c(OC)c1
IC50 (second compound 0.0316 µM): 21.5 nM
IC50 (second compound 0.1 µM): < 3.16 nM
IC50 (second compound 0.316 µM): < 3.16 nM
IC50 (second compound 1 µM): < 3.16 nM
IC50 (second compound 3.16 µM): < 3.16 nM
IC50 (second compound 10 µM): < 3.16 nM
viability, T/C [37]: 72.8%
viability, T/C [38]: 66.1%
viability, T/C [1]: 41.3%
viability, T/C [2]: 19.4%
viability, T/C [3]: 7.32%
viability, T/C [4]: 0.92%
viability, T/C [39]: 36.3%
viability, T/C [40]: 34.7%
viability, T/C [7]: 32.4%
viability, T/C [8]: 19.4%
viability, T/C [9]: 6.56%
viability, T/C [10]: 1.65%
viability, T/C [41]: 15.5%
viability, T/C [42]: 12.7%
viability, T/C [13]: 10.2%
viability, T/C [14]: 4.98%
viability, T/C [15]: 2.15%
viability, T/C [16]: 0.5%
viability, T/C [43]: 15.6%
viability, T/C [44]: 12.1%
viability, T/C [19]: 6.92%
viability, T/C [20]: 4.04%
viability, T/C [21]: 1.17%
viability, T/C [22]: 0.45%
viability, T/C [45]: 15.5%
viability, T/C [46]: 12.8%
viability, T/C [25]: 8.33%
viability, T/C [26]: 3.11%
viability, T/C [27]: 0.87%
viability, T/C [28]: 0.39%
viability, T/C [47]: 14.3%
viability, T/C [48]: 10.3%
viability, T/C [31]: 6.72%
viability, T/C [32]: 3.94%
viability, T/C [33]: 1.19%
viability, T/C [34]: 0.48%

The next lines start with results.

IC50 (second compound 0.0316 µM): 4700 nM
IC50 (second compound 0.1 µM): < 31.6 nM
IC50 (second compound 0.316 µM): < 31.6 nM
IC50 (second compound 1 µM): < 31.6 nM
IC50 (second compound 3.16 µM): < 31.6 nM
IC50 (second compound 10 µM): < 31.6 nM
SMILES: C#Cc1c(F)ccc2cc(O)cc(-c3ncc4c(N5CC6CCC(C5)N6)nc(OCC56CCCN5CC(F)C6)nc4c3F)c12 (stereo not given) + CNC(=O)c1ccc(Nc2nc(OC3CCCC3)c3c(-c4ccc5nc(C)oc5c4)c[nH]c3n2)c(OC)c1
viability, T/C [1]: 73.7%
viability, T/C [2]: 87.6%
viability, T/C [3]: 71.8%
viability, T/C [4]: 69.6%
viability, T/C [5]: 57.8%
viability, T/C [6]: 35.7%
viability, T/C [7]: 29.6%
viability, T/C [8]: 29.6%
viability, T/C [9]: 21.5%
viability, T/C [10]: 22.8%
viability, T/C [11]: 20.5%
viability, T/C [12]: 18.6%
viability, T/C [13]: 20.1%
viability, T/C [14]: 18.9%
viability, T/C [15]: 14.5%
viability, T/C [16]: 16.9%
viability, T/C [17]: 12.7%
viability, T/C [18]: 14.8%
viability, T/C [19]: 14.8%
viability, T/C [20]: 14.9%
viability, T/C [21]: 13.8%
viability, T/C [22]: 15.1%
viability, T/C [23]: 14.8%
viability, T/C [24]: 15.6%
viability, T/C [25]: 13.5%
viability, T/C [26]: 16.4%
viability, T/C [27]: 14.8%
viability, T/C [28]: 16.8%
viability, T/C [29]: 12.4%
viability, T/C [30]: 12.4%
viability, T/C [31]: 15.9%
viability, T/C [32]: 18%
viability, T/C [33]: 16.2%
viability, T/C [34]: 16.8%
viability, T/C [35]: 16.2%
viability, T/C [36]: 11.5%

IC50 (second compound 0.0316 µM): 87.6 nM
IC50 (second compound 0.1 µM): < 3.16 nM
IC50 (second compound 0.316 µM): < 3.16 nM
IC50 (second compound 1 µM): < 3.16 nM
IC50 (second compound 3.16 µM): < 3.16 nM
IC50 (second compound 10 µM): < 3.16 nM
SMILES: CCN1CCN(Cc2ccc(Nc3ncc(F)c(-c4cc(F)c5nc(C)n(C(C)C)c5c4)n3)nc2)CC1 + CNC(=O)c1ccc(Nc2nc(OC3CCCC3)c3c(-c4ccc5nc(C)oc5c4)c[nH]c3n2)c(OC)c1
viability, T/C [37]: 75.9%
viability, T/C [38]: 77.3%
viability, T/C [1]: 57.8%
viability, T/C [2]: 49.9%
viability, T/C [3]: 42.8%
viability, T/C [4]: 36.6%
viability, T/C [39]: 32.2%
viability, T/C [40]: 31.5%
viability, T/C [7]: 29.7%
viability, T/C [8]: 30.7%
viability, T/C [9]: 33.5%
viability, T/C [10]: 38.7%
viability, T/C [41]: 19.7%
viability, T/C [42]: 17%
viability, T/C [13]: 19%
viability, T/C [14]: 22.7%
viability, T/C [15]: 30.5%
viability, T/C [16]: 33.3%
viability, T/C [43]: 18.5%
viability, T/C [44]: 17.9%
viability, T/C [19]: 16.8%
viability, T/C [20]: 21.5%
viability, T/C [21]: 22.6%
viability, T/C [22]: 31.9%
viability, T/C [45]: 19%
viability, T/C [46]: 18%
viability, T/C [25]: 16.1%
viability, T/C [26]: 20.6%
viability, T/C [27]: 29.9%
viability, T/C [28]: 30.5%
viability, T/C [47]: 16.4%
viability, T/C [48]: 15.9%
viability, T/C [31]: 21.2%
viability, T/C [32]: 18.4%
viability, T/C [33]: 23%
viability, T/C [34]: 32.5%
